Results as given in the NIST ThermoML archive (doi:10.1016/j.jct.2016.12.015).

Experiment: molar heat capacity at constant pressure
Conditions: 101.33 kPa, Crystal, Small (less than 1 g) adiabatic calorimetry

C[C@H]1C[C@@H]2[C@H]([C@@H](O)C[C@@]3(C)[C@H]2CC[C@]3(O)C(=O)CO)[C@@]2(C)C=CC(=O)C=C12 [Methylprednisolone]
Conditions | molar heat capacity at constant pressure [J/K/mol]
5 K | 0.981
6.33 K | 2.001
6.49 K | 2.141
6.65 K | 2.26
6.78 K | 2.357
6.95 K | 2.495
7.1 K | 2.55
7.24 K | 2.74
7.49 K | 3.021
7.82 K | 3.43
8.13 K | 3.81
8.44 K | 4.275
8.75 K | 4.579
9.05 K | 4.913
9.36 K | 5.269
9.69 K | 5.653
10 K | 6.06
10.01 K | 6.058
10.33 K | 6.528
10.66 K | 6.921
11 K | 7.373
11.38 K | 7.86
11.77 K | 8.373
12.06 K | 8.762
12.88 K | 9.96
14.16 K | 11.96
15 K | 13.31
15.44 K | 14.15
16.74 K | 16.54
18.07 K | 19.18
19.43 K | 21.92
20 K | 22.8
22.43 K | 28.16
25 K | 33.3
25.22 K | 33.67
28.44 K | 39.96
30 K | 42.63
31.97 K | 46.03
35 K | 51.54
35.53 K | 52.34
39.09 K | 58.93
40 K | 60.39
42.67 K | 65.35
45 K | 69.3
46.26 K | 71.33
49.86 K | 77.8
50 K | 78.27
53.45 K | 84.8
57.05 K | 91.01
60 K | 96.39
60.67 K | 97.6
64.3 K | 104
67.91 K | 110.8
70 K | 114.2
71.53 K | 116.8
75.17 K | 122.4
78.82 K | 129.7
80 K | 131.5
81.9 K | 134.6
82.48 K | 136
86.1 K | 142.8
86.12 K | 142.4
89.32 K | 147.8
90 K | 149.3
92.91 K | 154.1
96.5 K | 159.9
100 K | 165.9
100.08 K | 165.8
103.66 K | 171.9
107.23 K | 178
110 K | 182.1
110.81 K | 183.4
114.37 K | 188.6
117.93 K | 195.4
120 K | 198.1
121.48 K | 200.9
125.04 K | 206.7
128.59 K | 212
130 K | 213.9
132.14 K | 217.1
135.68 K | 222.2
139.22 K | 228.2
140 K | 229.6
